Patent publication US10597388B2, “Pyridazinone herbicides” (FMC CORPORATION, priority 2014, dated 2020)

Columns and labels:
Type in all cases: in vivo
[1] = test system: Italian ryegrass (Lolium multiflorum); assay: Test E greenhouse herbicide test, pre- and postemergence
In short: (§1)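 Pre- and postemergence sprays, same solvent–surfactant formulation. Substrate: silt loam (pre), peat-based mix (post, 1–4 leaf, 2–18 cm). Readout: visual control rating 0–100 against controls at 14–21 d.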

[2] = test system: soybean (Glycine max); assay: as above
In short: as §1

[3] = test system: johnsongrass (Sorghum halepense); assay: as above; details: Preemergence
In short: as §1

[4] = test system: pigweed, palmer (palmer pigweed, Amaranthus palmeri); assay: as above
In short: as §1

[5] = test system: dayflower (Virginia (VA) dayflower, Commelina virginica); assay: as above
In short: as §1

[6] = test system: horseweed (Conyza canadensis); assay: as above; details: Postemergence
In short: as §1

[7] = test system: foxtail, giant (giant foxtail, Setaria faberii); assay: as above; details: Preemergence
In short: as §1

[8] = test system: nightshade (eastern black nightshade, Solanum ptycanthum); assay: as above; details: Preemergence
In short: as §1

[9] = test system: crabgrass, large (large crabgrass, Digitaria sanguinalis); assay: as above; details: Preemergence
In short: as §1

[10] = test system: foxtail, green (green foxtail, Setaria viridis); assay: as above; details: Preemergence
In short: as §1

[11] = test system: momingglory (Ipomoea coccinea); assay: as above; details: Preemergence
In short: as §1

[12] = test system: arrowleaf sida (Sida rhombifolia); assay: as above
In short: as §1

[13] = test system: kochia (Kochia scoparia); assay: as above
In short: as §1

[14] = test system: velvetleaf (Abutilon theophrasti); assay: as above; details: Preemergence
In short: as §1

[15] = test system: waterhemp_RES1 (ALS & Triazine resistant common waterhemp, Amaranthus rudis); assay: Test E greenhouse herbicide test, postemergence
In short: (§2)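 Resistant waterhemp plants grown in peat/vermiculite potting medium were sprayed postemergence at the 1- to 4-leaf stage (2–18 cm tall). After 14 to 21 d in the greenhouse, injury was visually rated against untreated controls on a 0–100 scale, where 0 is no effect and 100 is complete control.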

[16] = test system: waterhemp_RES2 (ALS & HPPD resistant common waterhemp, Amaranthus rudis); assay: Test E greenhouse herbicide test, postemergence
In short: as §2

[17] = 62 g ai/ha, Postemergence, scale 0 to 100 (0 no effect, 100 complete control)
[18] = 62 g ai/ha, Preemergence, scale 0 to 100 (0 no effect, 100 complete control)
[19] = 125 g ai/ha, Postemergence, scale 0 to 100 (0 no effect, 100 complete control)
[20] = 125 g ai/ha, Preemergence, scale 0 to 100 (0 no effect, 100 complete control)
[21] = Postemergence, 16 g ai/ha, visual, scale 0 no effect to 100 complete control
[22] = Postemergence, 31 g ai/ha, visual, scale 0 no effect to 100 complete control
[23] = Preemergence, 16 g ai/ha, scale 0 to 100, 0 no effect, 100 complete control
[24] = Preemergence, 31 g ai/ha, scale 0 to 100, 0 no effect, 100 complete control
[25] = 62 g ai/ha, scale 0 to 100 (0 no effect, 100 complete control)
[26] = 125 g ai/ha, scale 0 to 100 (0 no effect, 100 complete control)
[27] = 16 g ai/ha, scale 0 to 100, 0 no effect, 100 complete control
[28] = 31 g ai/ha, scale 0 to 100, 0 no effect, 100 complete control
[29] = 16 g ai/ha, visual, scale 0 no effect to 100 complete control
[30] = 31 g ai/ha, visual, scale 0 no effect to 100 complete control

Compound: Cc1ccc2sc(C)c(-c3c(OC(=O)OC(C)C)c(C)nn(C)c3=O)c2c1 [Compound 66]
- Plant response rating, Ryegrass, Italian [1, 17]: 40
- Plant response rating, Ryegrass, Italian [1, 18]: 90
- Plant response rating, Ryegrass, Italian [1, 19]: 50
- Plant response rating, Ryegrass, Italian [1, 20]: 100
- Plant response rating, Ryegrass, Italian [1, 21]: 20
- Plant response rating, Ryegrass, Italian [1, 22]: 30
- Plant response rating, Ryegrass, Italian [1, 23]: 40
- Plant response rating, Ryegrass, Italian [1, 24]: 65
- Plant response rating, Soybean [2, 17]: 20
- Plant response rating, Soybean [2, 18]: 0
- Plant response rating, Soybean [2, 19]: 20
- Plant response rating, Soybean [2, 20]: 0
- Plant response rating, Soybean [2, 21]: 0
- Plant response rating, Soybean [2, 22]: 0
- Plant response rating, Soybean [2, 23]: 0
- Plant response rating, Soybean [2, 24]: 0
- Plant response rating, Johnsongrass [3, 25]: 0
- Plant response rating, Johnsongrass [3, 26]: 0
- Plant response rating, Johnsongrass [3, 27]: 0
- Plant response rating, Johnsongrass [3, 28]: 0
- Plant response rating, Pigweed, Palmer [4, 17]: 60
- Plant response rating, Pigweed, Palmer [4, 18]: 65
- Plant response rating, Pigweed, Palmer [4, 19]: 80
- Plant response rating, Pigweed, Palmer [4, 20]: 100
- Plant response rating, Pigweed, Palmer [4, 21]: 50
- Plant response rating, Pigweed, Palmer [4, 22]: 70
- Plant response rating, Pigweed, Palmer [4, 23]: 0
- Plant response rating, Pigweed, Palmer [4, 24]: 0
- Plant response rating, Dayflower, VA [5, 17]: 60
- Plant response rating, Dayflower, VA [5, 18]: 0
- Plant response rating, Dayflower, VA [5, 19]: 50
- Plant response rating, Dayflower, VA [5, 20]: 20
- Plant response rating, Dayflower, VA [5, 21]: 0
- Plant response rating, Dayflower, VA [5, 22]: 25
- Plant response rating, Dayflower, VA [5, 23]: 0
- Plant response rating, Dayflower, VA [5, 24]: 0
- Plant response rating, Horseweed [6, 25]: 90
- Plant response rating, Horseweed [6, 26]: 90
- Plant response rating, Horseweed [6, 29]: 60
- Plant response rating, Horseweed [6, 30]: 80
- Plant response rating, Foxtail, Giant [7, 25]: 40
- Plant response rating, Foxtail, Giant [7, 26]: 90
- Plant response rating, Foxtail, Giant [7, 27]: 0
- Plant response rating, Foxtail, Giant [7, 28]: 5
- Plant response rating, Nightshade [8, 25]: 15
- Plant response rating, Nightshade [8, 26]: 100
- Plant response rating, Nightshade [8, 27]: 0
- Plant response rating, Nightshade [8, 28]: 0
- Plant response rating, Crabgrass, Large [9, 25]: 0
- Plant response rating, Crabgrass, Large [9, 26]: 15
- Plant response rating, Crabgrass, Large [9, 27]: 0
- Plant response rating, Crabgrass, Large [9, 28]: 0
- Plant response rating, Foxtail, Green [10, 25]: 35
- Plant response rating, Foxtail, Green [10, 26]: 70
- Plant response rating, Foxtail, Green [10, 27]: 0
- Plant response rating, Foxtail, Green [10, 28]: 0
- Plant response rating, Morningglory [11, 25]: 30
- Plant response rating, Morningglory [11, 26]: 40
- Plant response rating, Morningglory [11, 27]: 0
- Plant response rating, Morningglory [11, 28]: 0
- Plant response rating, Arrowleaf Sida [12, 17]: 60
- Plant response rating, Arrowleaf Sida [12, 18]: 40
- Plant response rating, Arrowleaf Sida [12, 19]: 70
- Plant response rating, Arrowleaf Sida [12, 20]: 65
- Plant response rating, Arrowleaf Sida [12, 21]: 30
- Plant response rating, Arrowleaf Sida [12, 22]: 40
- Plant response rating, Arrowleaf Sida [12, 23]: 0
- Plant response rating, Arrowleaf Sida [12, 24]: 0
- Plant response rating, Kochia [13, 17]: 90
- Plant response rating, Kochia [13, 18]: 60
- Plant response rating, Kochia [13, 19]: 95
- Plant response rating, Kochia [13, 20]: 90
- Plant response rating, Kochia [13, 21]: 90
- Plant response rating, Kochia [13, 22]: 95
- Plant response rating, Kochia [13, 23]: 0
- Plant response rating, Kochia [13, 24]: 0
- Plant response rating, Velvetleaf [14, 25]: 20
- Plant response rating, Velvetleaf [14, 26]: 80
- Plant response rating, Velvetleaf [14, 27]: 0
- Plant response rating, Velvetleaf [14, 28]: 0
- Plant response rating, Waterhemp_RES1 [15, 29]: 70
- Plant response rating, Waterhemp_RES1 [15, 30]: 80
- Plant response rating, Waterhemp_RES1 [15, 25]: 75
- Plant response rating, Waterhemp_RES1 [15, 26]: 80
- Plant response rating, Waterhemp_RES2 [16, 29]: 40
- Plant response rating, Waterhemp_RES2 [16, 30]: 40
- Plant response rating, Waterhemp_RES2 [16, 25]: 40
- Plant response rating, Waterhemp_RES2 [16, 26]: 50
